For assay [1] the following is noted: physiological conditions; cited from earlier work.
The next assay has as its target TEV protease (Tobacco etch virus, UniProt P04517). Briefly: Fluorescence polarization binding of 5-FAM-conjugated peptides to TEV protease. The settings on record: cyclic vs linear counterpart.
The next assay addresses T1, HDAC8 (UniProt Q9BY41 1-377).
T1 sequence (looked up): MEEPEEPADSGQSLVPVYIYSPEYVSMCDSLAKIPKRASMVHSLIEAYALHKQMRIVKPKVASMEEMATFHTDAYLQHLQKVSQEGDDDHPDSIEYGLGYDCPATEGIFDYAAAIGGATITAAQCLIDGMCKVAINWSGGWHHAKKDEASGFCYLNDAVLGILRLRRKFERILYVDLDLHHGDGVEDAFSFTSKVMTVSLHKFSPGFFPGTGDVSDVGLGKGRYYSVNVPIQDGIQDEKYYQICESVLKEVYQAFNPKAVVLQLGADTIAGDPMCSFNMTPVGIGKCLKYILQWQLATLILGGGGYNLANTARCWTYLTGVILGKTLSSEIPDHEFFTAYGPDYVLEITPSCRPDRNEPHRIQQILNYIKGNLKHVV
Briefly: fluorescence polarisation.

Where no end group is shown, it is not given here. [ ]: non-standard residue; d: D form. Nle = CCCC[C@H](N)C(=O)O

Sequence of TEV protease (P04517 2038-2279): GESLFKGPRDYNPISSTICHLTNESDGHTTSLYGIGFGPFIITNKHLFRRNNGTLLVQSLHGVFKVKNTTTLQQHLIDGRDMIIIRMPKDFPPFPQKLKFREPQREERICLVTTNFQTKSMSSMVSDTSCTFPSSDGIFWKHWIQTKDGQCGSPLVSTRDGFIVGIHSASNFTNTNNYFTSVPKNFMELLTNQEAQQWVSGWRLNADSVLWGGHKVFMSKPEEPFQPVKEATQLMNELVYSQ

For `C=CC(=O)NCCCC[C@H](N)C(=O)O` [AcrK, N^ε-acryloyl-lysine], the “second-order rate constant of reaction with a thiol” value in assay [1] is 0.004 M⁻¹ s⁻¹. As to `CC[C@H](C)[C@@H]1NC(=O)[C@H](CC(C)C)NC(=O)[C@H](Cc2ccc(O)cc2)NC(=O)[C@H](CC(=O)O)NC(=O)[C@H](CCCNC(=N)N)NC(=O)[C@H](Cc2c[nH]c3ccccc23)NC(=O)[C@@H](N)CSCCC(=O)NCCCC[C@@H](C(=O)O)NC1=O` [CycTev1, CWRDYLIX], the “better binding of cyclic peptide than its linear counterpart” value at TEV protease is on record as greater than 6 fold. In the case of `N=C(N)NCCC[C@@H]1NC(=O)[C@H](Cc2c[nH]cn2)NC(=O)[C@H](CO)NC(=O)[C@H](Cc2ccccc2)NC(=O)[C@H](Cc2c[nH]c3ccccc23)NC(=O)[C@H](CCC(N)=O)NC(=O)[C@@H](N)CSCCC(=O)NCCCC[C@@H](C(=O)O)NC1=O` [CycTev2, CQWFSHRX], the “better binding of cyclic peptide than its linear counterpart” value on TEV protease is on record as greater than 6 fold. CQSLWMNK (also: 5-FAM conjugated, site not given here) [5-FAM-conjugated LinH8a] displayed a Kd in the assay with HDAC8 greater than 50 µM. The same measure, in the same setting: with CQSLWMN[Nle] (also: 5-FAM conjugated, site not given here) [5-FAM-conjugated LinH8a’] the figure was 31 ± 7 µM.

Source of the values: publication PMC6803038 (Angewandte Chemie (International ed. in English), 2019).
